Source: US20230278972A1, “SUBSTITUTED HALOALKYL SULFONANILIDE HERBICIDES” (FMC Corporation, priority 2020, published 2023)

Legend:
Type in all cases: in vivo
[1] = test system: blackgrass (Alopecurus myosuroides); assay: Test A1 preemergence, blackgrass
How it was run: (§1)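 Seeds were first planted into a blend of loam soil and sand and given a preemergence directed soil spray. In parallel, pots of the same soil were sown for postemergence application once plants reached 2 to 10 cm and the one- to two-leaf stage. Both used surfactant-containing non-phytotoxic solvent formulations.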

[2] = test system: corn (Zea mays); assay: Test A1 preemergence, corn
How it was run: as §1

[3] = test system: Foxtail, Giant (giant foxtail, Setaria faberi); assay: Test A1 preemergence, Foxtail, Giant
How it was run: as §1

[4] = test system: goosegrass (Eleusine indica); assay: Test A1 preemergence, goosegrass
How it was run: as §1

[5] = test system: kochia (Bassia scoparia); assay: Test A1 preemergence, kochia
How it was run: as §1

[6] = test system: Oat, Wild (wild oat, Avena fatua); assay: Test A1 preemergence, Oat, Wild
How it was run: as §1

[7] = test system: Pigweed, Palmer (palmer amaranth, palmer pigweed, Amaranthus palmeri); assay: Test A1 preemergence, Pigweed, Palmer
How it was run: as §1

[8] = test system: ragweed (common ragweed, Ambrosia artemisiifolia); assay: Test A1 preemergence, ragweed
How it was run: as §1

[9] = test system: Ryegrass, Italian (Italian ryegrass, Lolium multiflorum); assay: Test A1 preemergence, Ryegrass, Italian
How it was run: as §1

[10] = test system: soybean (Glycine max); assay: Test A1 preemergence, soybean
How it was run: as §1

[11] = test system: wheat (Triticum aestivum); assay: Test A1 preemergence, wheat
How it was run: as §1

[12] = test system: blackgrass (Alopecurus myosuroides); assay: Test A1 postemergence, blackgrass; conditions: Postemergence, 0 to 100 scale (0 no effect, 100 complete control)
How it was run: (§2)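 Plants were grown in a loam soil/sand blend, with test chemicals formulated in a non-phytotoxic solvent mixture containing surfactant. Preemergence treatment (corn) was a directed soil spray at planting. Postemergence treatment was applied to plants 2 to 10 cm tall at the one- to two-leaf stage.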

[13] = test system: corn (Zea mays); assay: Test A1 postemergence, corn; conditions: Postemergence
How it was run: as §1

[14] = test system: Foxtail, Giant (giant foxtail, Setaria faberi); assay: Test A1 postemergence, Foxtail, Giant; conditions: Postemergence
How it was run: as §2

[15] = test system: goosegrass (Eleusine indica); assay: Test A1 postemergence, goosegrass; conditions: Postemergence
How it was run: as §2

[16] = test system: kochia (Bassia scoparia); assay: Test A1 postemergence, kochia; conditions: Postemergence
How it was run: as §2

[17] = test system: Oat, Wild (wild oat, Avena fatua); assay: Test A1 postemergence, Oat, Wild; conditions: Postemergence
How it was run: as §1

[18] = test system: Pigweed, Palmer (palmer amaranth, palmer pigweed, Amaranthus palmeri); assay: Test A1 postemergence, Pigweed, Palmer; conditions: Postemergence
How it was run: as §1

[19] = test system: ragweed (common ragweed, Ambrosia artemisiifolia); assay: Test A1 postemergence, ragweed; conditions: Postemergence
How it was run: as §1

[20] = test system: Ryegrass, Italian (Italian ryegrass, Lolium multiflorum); assay: Test A1 postemergence, Ryegrass, Italian; conditions: Postemergence
How it was run: as §2

[21] = test system: soybean (Glycine max); assay: Test A1 postemergence, soybean; conditions: Postemergence
How it was run: as §2

[22] = test system: wheat (Triticum aestivum); assay: Test A1 postemergence, wheat; conditions: Postemergence
How it was run: as §2

[23] = test system: galium (catchweed bedstraw, Galium aparine); assay: Test A1 postemergence, galium; conditions: Postemergence
How it was run: as §2

[24] = test system: horseweed (Erigeron canadensis); assay: Test A1 postemergence, horseweed; conditions: Postemergence
Source text: Seeds of plant species selected from, blackgrass (Alopecurus myosuroides), corn (Zea mays), Foxtail, Giant (giant foxtail, Setaria faberi), goosegrass (Eleusine indica), kochia (Bassia scoparia), Oat, Wild (wild oat, Avena fatua), Pigweed, Palmer (palmer amaranth, palmer pigweed, Amaranthus palmeri), ragweed (common ragweed, Ambrosia artemisiifolia), Ryegrass, Italian (Italian ryegrass, Lolium multiflorum), soybean (Glycine max), and wheat (Triticum aestivum) were planted into a blend of loam soil and sand and treated preemergence with a directed soil spray using test chemicals formulated in a non-phytotoxic solvent mixture which included a surfactant. At the same time, plants selected from these crop and weed species and also galium (catchweed bedstraw, Galium aparine) and horseweed (Erigeron canadensis) were planted in pots containing the same blend of loam soil and sand and treated with postemergence applications of test chemicals formulated in the same manner. Plants ranged in height from 2 to 10 cm and were in the one- to two-leaf stage for the postemergence treatment. […] A dash (-) response means no test result.

[25] = test system: barnyardgrass (Echinochloa crus-galli); assay: Test B1 flooded paddy test, barnyardgrass; conditions: 250 g ai/ha, Flood, applied to paddy water, 2-leaf stage, visually evaluated after 10 to 14 days
Source text: (§3) A dash (-) response means no test result.

[26] = test system: ducksalad (Heteranthera limosa); assay: Test B1 flooded paddy test, ducksalad; conditions: 250 g ai/ha, Flood, applied to paddy water, 2-leaf stage, visually evaluated after 10 to 14 days
Source text: as §3

[27] = test system: rice (Oryza sativa); assay: Test B1 flooded paddy test, rice; conditions: 250 g ai/ha, Flood, applied to paddy water, 2-leaf stage, visually evaluated after 10 to 14 days
Source text: as §3

[28] = 31 g ai/ha, 0 to 100 scale (0 no effect, 100 complete control)
[29] = 125 g ai/ha, 0 to 100 scale, 0 no effect, 100 complete control
[30] = 31 g ai/ha, 0 to 100 scale (0 no effect, 100 complete control), 10 days

Compound: Cc1cc(C)c(N(COC(=O)C(C)C)S(=O)(=O)C(F)(F)F)cc1C1=NOC2CCCC12 (stereo not drawn) [Compound 308]
- Plant response rating, Blackgrass [1, 28]: 0
- Plant response rating, Blackgrass [1, 29]: 50
- Plant response rating, Corn [2, 28]: 0
- Plant response rating, Corn [2, 29]: 60
- Plant response rating, Foxtail, Giant [3, 28]: 50
- Plant response rating, Foxtail, Giant [3, 29]: 80
- Plant response rating, Goosegrass [4, 28]: 80
- Plant response rating, Goosegrass [4, 29]: 90
- Plant response rating, Kochia [5, 28]: 20
- Plant response rating, Kochia [5, 29]: 70
- Plant response rating, Oat, Wild [6, 28]: 0
- Plant response rating, Oat, Wild [6, 29]: 50
- Plant response rating, Pigweed, Palmer [7, 28]: 40
- Plant response rating, Pigweed, Palmer [7, 29]: 70
- Plant response rating, Ragweed [8, 28]: 0
- Plant response rating, Ragweed [8, 29]: 50
- Plant response rating, Ryegrass, Italian [9, 28]: 60
- Plant response rating, Ryegrass, Italian [9, 29]: 90
- Plant response rating, Soybean [10, 28]: 0
- Plant response rating, Soybean [10, 29]: 30
- Plant response rating, Wheat [11, 28]: 20
- Plant response rating, Wheat [11, 29]: 80
- Plant response rating, Blackgrass ([12]; 31 g ai/ha, 10 days): 0
- Plant response rating, Blackgrass ([12]; 125 g ai/ha): 0
- Plant response rating, Corn [13, 30]: 0
- Plant response rating, Corn ([13]; 125 g ai/ha, 0 to 100 scale): 30
- Plant response rating, Foxtail, Giant [14, 30]: 0
- Plant response rating, Foxtail, Giant ([14]; 125 g ai/ha, 0 to 100 scale): 40
- Plant response rating, Goosegrass [15, 30]: 50
- Plant response rating, Goosegrass ([15]; 125 g ai/ha, 0 to 100 scale): 80
- Plant response rating, Kochia [16, 30]: 20
- Plant response rating, Kochia ([16]; 125 g ai/ha, 0 to 100 scale): 70
- Plant response rating, Oat, Wild [17, 30]: 0
- Plant response rating, Oat, Wild ([17]; 125 g ai/ha, 0 to 100 scale): 0
- Plant response rating, Pigweed, Palmer [18, 30]: 0
- Plant response rating, Pigweed, Palmer ([18]; 125 g ai/ha, 0 to 100 scale): 0
- Plant response rating, Ragweed [19, 30]: 50
- Plant response rating, Ragweed ([19]; 125 g ai/ha, 0 to 100 scale): 90
- Plant response rating, Ryegrass, Italian [20, 30]: 0
- Plant response rating, Ryegrass, Italian ([20]; 125 g ai/ha, 0 to 100 scale): 30
- Plant response rating, Soybean [21, 30]: 40
- Plant response rating, Soybean ([21]; 125 g ai/ha, 0 to 100 scale): 60
- Plant response rating, Wheat [22, 30]: 10
- Plant response rating, Wheat ([22]; 125 g ai/ha, 0 to 100 scale): 50
- Plant response rating, Galium [23, 30]: 60
- Plant response rating, Galium ([23]; 125 g ai/ha, 0 to 100 scale): 90
- Plant response rating, Horseweed [24, 30]: 0
- Plant response rating, Horseweed ([24]; 125 g ai/ha, 0 to 100 scale): 60
- Plant response rating, Barnyardgrass (0 to 100 scale, 0 is no effect, 100 is complete control) [25]: 95
- Plant response rating, Ducksalad (0 to 100 scale, 0 is no effect, 100 is complete control) [26]: 90
- Plant response rating, Rice (0 to 100 scale, 0 is no effect, 100 is complete control) [27]: 10
